Assay results as given in PMC9569450, “Dual Effect of Tryptamine on Prostate Cancer Cell Growth Regulation: A Pilot Study” (International Journal of Molecular Sciences, 2022).

Tests used:
RWPE-1 cells = assay: MTT cell proliferation assay, RWPE-1; assay type: cell-based; details: Homo sapiens, RWPE-1; MTT, 48 h treatment in FBS-free medium; read-out: IC50 Value (Mean ± SD mM) RWPE-1
Protocol: (§1) PC-3, LNCaP, RWPE-1, HepG2, A549, and PANC-1 cells were purchased from the National Collection of Authenticated Cell Cultures (Shanghai, China). […] All the above cell cultures were supplied with 10% fetal bovine serum and 1% penicillin-streptomycin. RWPE-1 cells were cultured in keratinocyte serum-free medium (K-SFM, Gibco, New York, NY, USA) supplemented with 50 mg/L bovine pituitary extract and 5 μg/L epidermal growth factor (EGF). All cell lines were grown in a humidified atmosphere of 5% CO2 at 37 °C.
(§2) Cells were seeded in 100 μL complete medium in a 96-well plate, at a density of 10,000 cells/well for LNCaP and 5000 cells/well for other cells. Cells were pre-incubated for 24 h to allow for adherence before removal of complete medium and treatment with various concentrations of compounds in fetal bovine serum (FBS)-free medium for 48 h. After treatment, 20 μL/well MTT (5 mg/mL) was added and incubated for 3–4 h at 37 °C, and then 100 μL/well DMSO was added for MTT assay. The plate was shaken on an orbital shaker for 10 min. Absorbance was measured using a microplate reader at 492 nm for the MTT assay (performed in triplicates). Cell viability was normalized to control. Half inhibitory concentration (IC50) was calculated by SPSS Statistics 17.0. […] The experiments were independently repeated two to three times.

LNCaP cells = assay: MTT cell proliferation assay, LNCaP; assay type: cell-based; details: Homo sapiens, LNCaP, 48 h treatment in FBS-free medium, read-out: IC50 Value (Mean ± SD mM) LNCaP
Protocol: as §1, §2

A549 cells [1] = assay: MTT cell proliferation assay, A549; assay type: cell-based; details: Homo sapiens, A549, 48 h treatment in FBS-free medium, read-out: IC50 Value (Mean ± SD mM) A549
Protocol: as §1, §2

HepG2 cells = assay: MTT cell proliferation assay, HepG2; assay type: cell-based; details: Homo sapiens, HepG2, 48 h treatment in FBS-free medium, read-out: IC50 Value (Mean ± SD mM) HepG2
Protocol: as §1, §2

PANC-1 cells [2] = assay: MTT cell proliferation assay, PANC-1; assay type: cell-based; details: Homo sapiens, PANC-1, 48 h treatment in FBS-free medium, read-out: IC50 Value (Mean ± SD mM) PANC-1
Protocol: as §1, §2

[3] = system: A549, HepG2, and PANC-1 cells; assay: MTT cell proliferation assay, other three cancer cell lines; assay type: cell-based; details: A549, HepG2, and PANC-1, text summary
Protocol: as §1, §2

PANC-1 cells [4] = assay: Transwell migration assay, PANC-1; assay type: cell-based; details: 24 h
Protocol: (§3) Cell migration was evaluated using 8-μm transwell filters (Costar Corning, Schiphol-Rijk, The Netherlands). Cells at a density of 5 × 10^4 were seeded to the upper chamber, and the chamber was filled with FBS-free medium. Cells were incubated overnight to allow for adherence; then, the lower chamber was replaced with 10% FBS medium as a chemo-attractant. Following a 24 h incubation, non-migrating cells on the upper surface of the insert membrane were gently removed by cotton swabs and migrated cells on the lower surface of the insert membrane were fixed by 4% paraformaldehyde and stained with 0.1% crystal violet for 20 min. Migrated cells on each membrane were photographed and counted at 100× magnification field at six random fields.

A549 cells [5] = assay: Transwell migration assay, A549; assay type: cell-based; details: 24 h
Protocol: as §3

PC-3 cells = assay: Annexin V-FITC/PI flow cytometry apoptosis assay; assay type: cell-based, human; details: 24 h
Protocol: Cell apoptosis was assessed by Annexin V-FITC and propidium iodide (PI) staining using an Annexin V-FITC apoptosis detection kit (Thermo Fisher Scientific, Carlsbad, CA, USA) according to the manufacturer’s instructions. Briefly, cells were seeded at a density of 1.0 × 10^5 cells/well and pre-incubated for 24 h to allow for adherence before treatment with various concentrations of tryptamine in an FBS-free medium. After 24 h of tryptamine incubation, cells in each well were harvested and centrifuged at 200× g for 5 min. Cells were washed with PBS and centrifuged at 200× g for 5 min. Cells were resuspended in 100 μL binding buffer, followed by staining with 5 μL Annexin V-FITC and 5 μL PI, and incubation on ice in the dark for 15 min after addition of each staining reagent. Subsequently, a 300 μL binding buffer was added to the sample and apoptotic cells were detected by a flow cytometer (NovoCyte; ACEA Biosciences Inc., San Diego, CA, USA).

[6] = system: cleaved caspase-3 in PC-3 cells; assay: Cleaved caspase-3 expression by immunofluorescent staining and Western blot; assay type: cell-based, human; details: PC-3, 0.3 mM
Protocol: After treatment with various doses of tryptamine, PC-3 cells were lysed with RIPA lysis buffer (Beyotime, Shanghai, China) containing 1 mM PMSF, and the total protein concentration was determined by BCA Protein Assay Kit (Solarbio, Beijing, China). Samples were electrophoresed on a 10% sodium dodecylsulfate (SDS) polyacrylamide gel and electrotransferred onto polyvinylidene difluoride (PVDF) membrane (Beyotime, China). After blocking with 5% BSA for 1 h, the membrane was incubated with the primary antibodies rabbit anti-cleaved caspase-3 (1:1000, ab32042, Abcam) and anti-β-actin (1:1000, 4967S, Cell Signaling Technology, Boston, MA, USA) at 4 °C overnight, followed by incubation with horseradish peroxidase (HRP)-conjugated goat anti-rabbit secondary antibody (1:2000, 7074S, Cell Signaling Technology) for 1 h at 37 °C. After washing with TBST, the bands were visualized by the enhanced chemiluminescence kit (Thermo Fisher Scientific, Carlsbad, CA, USA) and Odyssey® imaging system (LI-COR, Lincoln, NE, USA) according to the manufacturers’ instructions.
PC-3 cells (5 × 10^4 cells/well) were seeded in a 24-well chamber with a coverslip and incubated overnight. […] Fluorescence images were acquired with a laser scanning confocal microscope (LSCM, Leica, TCS SP8 MP, Heidelberg, Germany).

[7] = mice; cited from earlier work

## NCCc1c[nH]c2ccccc12 [Tryptamine]
RWPE-1 cells
  IC50: 0.71 ± 0.06 mM
LNCaP cells
  IC50: 0.037 ± 0.001 mM
A549 cells [1]
  IC50: 0.46 ± 0.01 mM
HepG2 cells
  IC50: 0.35 ± 0.02 mM
PANC-1 cells [2]
  IC50: 0.38 ± 0.01 mM
[3]
  IC50: 350 to 460 µM
PANC-1 cells [4]; PANC-1, 0.075 mM
  migrated cells reduced by: 43%
PANC-1 cells [4]; PANC-1, 0.15 mM
  percentage of migrated cells: 45%
PANC-1 cells [4]; PANC-1, 0.3 mM
  percentage of migrated cells: 27%
A549 cells [5]; A549, 0.075 mM
  migrated cells compared with the control: no significant difference
A549 cells [5]; A549, 0.15 mM
  percentage of migrated cells: 80%
A549 cells [5]; A549, 0.3 mM
  percentage of migrated cells: 63%
PC-3 cells; PC-3, 0.2 mM
  apoptotic cell populations (early and late apoptosis): 12.1%
PC-3 cells; PC-3, 0.3 mM
  apoptotic cell populations (early and late apoptosis): 21.4%
[6]
  expression of cleaved caspase-3: increased expression of cleaved caspase-3
[7]
  median lethal dose (LD50): ~ 200 mg/kg
